In ChEMBL document CHEMBL3244369, “Synthesis and inhibition analysis of 2(4)-imino-4(2)-amino-2,4-dideoxyriboflavin, a dual antagonist of riboflavin and folinic acid” (J Med Chem, 1977):
The source made the active and inactive calls. The calls are words filed in the database; no cut-off is given here.

Key:
Assay type in all cases: functional
[1] = Antifolate activity against Lactobacillus leichmannii at 7 ug/ml
[2] = Antifolate activity against Lactobacillus leichmannii at 20 ug/ml
[3] = tested on: Lactobacillus leichmannii; assay: Inhibition index, ratio of antifolate activity against Lactobacillus leichmannii in presence of 0.02 ug/ml of folinic acid to antifolate activity against Lactobacillus leichmannii absence of folinic acid
[4] = Antifolate activity against Lactobacillus leichmannii at 150 ug/ml in presence of 0.02 ug/ml of folinic acid and 250 ug/ml riboflavin
[5] = tested on: Lactobacillus leichmannii; assay: Inhibition index, ratio of antifolate activity against Lactobacillus leichmannii in presence of 250 ug/ml of riboflavin to antifolate activity against Lactobacillus leichmannii absence of riboflavin
[6] = Antifolate activity against Lactobacillus leichmannii at 20 to 60 ug/ml in presence of 0.02 ug/ml of folinic acid

Cc1cc2nc3c(N)nc(=N)nc-3n(C[C@H](O)[C@H](O)[C@H](O)CO)c2cc1C
growth inhibition (GI) [1]: Active | growth inhibition (GI) [2]: Active | Ratio [3]: 6000 | growth inhibition (GI) [4]: inactive | Ratio [5]: 1.5 | growth inhibition (GI) [6]: inactive
